From ChEMBL document CHEMBL1201862, “PubChem BioAssay data set” (2004)
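A five-concentration, 48-hour dose response in 96-well plates underlies each endpoint, interpolated linearly between surrounding concentrations. Abbreviation: GI50, concentration required for 50% inhibition of growth.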 The source made the active and inactive calls. No stated cut-off is given here; in the data, active = GI50 up to about 1.1 µM and inactive = higher.

How the values were obtained:
Assay in all cases: inhibition of tumour cell growth, NCI panel, 48 h
SN12C = test system: SN12C
SF-539 = test system: SF-539
UO-31 = test system: UO-31
M19-MEL = test system: M19-MEL
SK-MEL-5 = test system: SK-MEL-5
Malme-3M = test system: Malme-3M
IGROV-1 = test system: IGROV-1
SK-OV-3 = test system: SK-OV-3
RPMI-8226 = test system: RPMI-8226
XF498 = test system: XF498
A549 = test system: A549
SF-268 = test system: SF-268
DMS-114 = test system: DMS-114
KM12 = test system: KM12
786-0 = test system: 786-0
HCC 2998 = test system: HCC 2998
M14 = test system: M14
K562 = test system: K562
NCI-H522 = test system: NCI-H522
OVCAR-5 = test system: OVCAR-5
SW-620 = test system: SW-620
CCRF-CEM = test system: CCRF-CEM
SNB-75 = test system: SNB-75
SK-MEL-2 = test system: SK-MEL-2
HL-60 = test system: HL-60
LXFL 529 = test system: LXFL 529
SK-MEL-28 = test system: SK-MEL-28
HCT-15 = test system: HCT-15
DLD-1 = test system: DLD-1
NCI-H460 = test system: NCI-H460
MOLT-4 = test system: MOLT-4
EKVX = test system: EKVX
KM-20L2 = test system: KM-20L2
UACC-257 = test system: UACC-257
SNB-19 = test system: SNB-19
CAKI-1 = test system: CAKI-1
NCI-H23 = test system: NCI-H23
HOP-92 = test system: HOP-92
SNB-78 = test system: SNB-78
OVCAR-3 = test system: OVCAR-3
HOP-62 = test system: HOP-62
SF-295 = test system: SF-295
TK-10 = test system: TK-10
OVCAR-8 = test system: OVCAR-8
ACHN = test system: ACHN
OVCAR-4 = test system: OVCAR-4
LOX IMVI = test system: LOX IMVI
UACC-62 = test system: UACC-62
RXF 393 = test system: RXF 393
COLO 205 = test system: COLO 205
DMS-273 = test system: DMS-273
MDA-MB-435 = test system: MDA-MB-435
BT-549 = test system: BT-549
HCT-116 = test system: HCT-116
NCI-H226 = test system: NCI-H226
T47D = test system: T47D
U-251 = test system: U-251
HOP-18 = test system: HOP-18
SR = test system: SR
NCI/ADR-RES = test system: NCI/ADR-RES
MDA-N = test system: MDA-N
A498 = test system: A498
Hs-578T = test system: Hs-578T
MDA-MB-231 = test system: MDA-MB-231
PC-3 = test system: PC-3
DU-145 = test system: DU-145
HT-29 = test system: HT-29

O=C(CSc1nnc[nH]1)C[P+](c1ccccc1)(c1ccccc1)c1ccccc1
GI50 (SN12C): > 100 µM (inactive) | GI50 (SF-539): > 100 µM (inactive) | GI50 (UO-31): > 100 µM (inactive) | GI50 (M19-MEL): > 100 µM (inactive) | GI50 (SK-MEL-5): > 100 µM (inactive) | GI50 (Malme-3M): > 100 µM (inactive) | GI50 (IGROV-1): > 100 µM (inactive) | GI50 (SK-OV-3): > 100 µM (inactive) | GI50 (RPMI-8226): > 10 µM (inactive) | GI50 (XF498): 85.1 µM (inactive) | GI50 (A549): > 100 µM (inactive) | GI50 (SF-268): > 100 µM (inactive) | GI50 (DMS-114): 97.1 µM (inactive) | GI50 (KM12): > 100 µM (inactive) | GI50 (786-0): > 100 µM (inactive) | GI50 (HCC 2998): > 100 µM (inactive) | GI50 (M14): > 100 µM (inactive) | GI50 (K562): 43.4 µM (inactive) | GI50 (NCI-H522): 4.25 µM (inactive) | GI50 (OVCAR-5): > 100 µM (inactive) | GI50 (SW-620): > 100 µM (inactive) | GI50 (CCRF-CEM): 78.2 µM (inactive) | GI50 (SNB-75): 27.4 µM (inactive) | GI50 (SK-MEL-2): > 100 µM (inactive) | GI50 (HL-60): 31.7 µM (inactive) | GI50 (LXFL 529): > 100 µM (inactive) | GI50 (SK-MEL-28): > 100 µM (inactive) | GI50 (HCT-15): > 100 µM | GI50 (DLD-1): > 100 µM (inactive) | GI50 (NCI-H460): 94.4 µM (inactive) | GI50 (MOLT-4): 40.2 µM (inactive) | GI50 (EKVX): > 100 µM (inactive) | GI50 (KM-20L2): > 100 µM (inactive) | GI50 (UACC-257): > 100 µM (inactive) | GI50 (SNB-19): > 100 µM (inactive) | GI50 (CAKI-1): 54.6 µM (inactive) | GI50 (NCI-H23): > 100 µM (inactive) | GI50 (HOP-92): 22.9 µM (inactive) | GI50 (SNB-78): > 100 µM (inactive) | GI50 (OVCAR-3): 74.8 µM (inactive) | GI50 (HOP-62): > 100 µM (inactive) | GI50 (SF-295): > 100 µM (inactive) | GI50 (TK-10): > 100 µM (inactive) | GI50 (OVCAR-8): > 100 µM (inactive) | GI50 (ACHN): > 100 µM (inactive) | GI50 (OVCAR-4): 94 µM (inactive) | GI50 (LOX IMVI): > 100 µM (inactive) | GI50 (UACC-62): 99.1 µM (inactive) | GI50 (RXF 393): 61.4 µM (inactive) | GI50 (COLO 205): > 100 µM (inactive) | GI50 (DMS-273): > 100 µM (inactive)

CC(=O)OC(CCC1(C)OC1COc1ccc(CCNC(=O)C=C(C)C)cc1)C(C)(C)OC(C)=O (stereo unspecified)
GI50 (MDA-MB-435): 16.2 µM (inactive) | GI50 (SN12C): > 100 µM (inactive) | GI50 (SF-539): > 100 µM (inactive) | GI50 (UO-31): 48.9 µM (inactive) | GI50 (BT-549): 0.377 µM (active) | GI50 (M19-MEL): 19.7 µM (inactive) | GI50 (SK-MEL-5): 0.502 µM (active) | GI50 (Malme-3M): 23.5 µM (inactive) | GI50 (IGROV-1): 29.1 µM (inactive) | GI50 (HCT-116): 0.611 µM (active) | GI50 (SK-OV-3): > 100 µM (inactive) | GI50 (RPMI-8226): 13.1 µM (inactive) | GI50 (XF498): 23.2 µM (inactive) | GI50 (NCI-H226): > 57 µM (inactive) | GI50 (A549): 29.3 µM (inactive) | GI50 (SF-268): > 61.2 µM (inactive) | GI50 (DMS-114): 0.19 µM (active) | GI50 (KM12): 17.8 µM (inactive) | GI50 (786-0): > 100 µM (inactive) | GI50 (T47D): 16.6 µM (inactive) | GI50 (U-251): > 100 µM (inactive) | GI50 (HCC 2998): > 100 µM (inactive) | GI50 (M14): 16.3 µM (inactive) | GI50 (NCI-H522): 19.5 µM (inactive) | GI50 (OVCAR-5): > 100 µM (inactive) | GI50 (SW-620): > 100 µM (inactive) | GI50 (HOP-18): > 100 µM (inactive) | GI50 (SR): 24.9 µM (inactive) | GI50 (CCRF-CEM): > 40.6 µM (inactive) | GI50 (NCI/ADR-RES): 10.6 µM (inactive) | GI50 (MDA-N): 13.3 µM (inactive) | GI50 (SNB-75): 44.4 µM (inactive) | GI50 (A498): > 100 µM (inactive) | GI50 (SK-MEL-2): > 51.9 µM (inactive) | GI50 (Hs-578T): 59.3 µM (inactive) | GI50 (HL-60): > 32.1 µM (inactive) | GI50 (LXFL 529): 12.7 µM (inactive) | GI50 (SK-MEL-28): 28.2 µM (inactive) | GI50 (HCT-15): 24.9 µM | GI50 (MDA-MB-231): > 100 µM (inactive) | GI50 (NCI-H460): 25.6 µM (inactive) | GI50 (MOLT-4): 8.93 µM (inactive) | GI50 (EKVX): 16.9 µM (inactive) | GI50 (KM-20L2): 62.1 µM (inactive) | GI50 (UACC-257): 0.449 µM (active) | GI50 (PC-3): 29.9 µM (inactive) | GI50 (SNB-19): > 100 µM (inactive) | GI50 (CAKI-1): > 100 µM (inactive) | GI50 (NCI-H23): 0.647 µM (active) | GI50 (HOP-92): > 100 µM (inactive) | GI50 (SNB-78): 24.5 µM (inactive) | GI50 (OVCAR-3): 16.8 µM (inactive) | GI50 (HOP-62): 20 µM (inactive) | GI50 (SF-295): 0.743 µM (active) | GI50 (TK-10): > 100 µM (inactive) | GI50 (OVCAR-8): 22.9 µM (inactive) | GI50 (ACHN): 3.61 µM (inactive) | GI50 (OVCAR-4): 23.7 µM (inactive) | GI50 (LOX IMVI): 5.85 µM (inactive) | GI50 (DU-145): > 100 µM (inactive) | GI50 (UACC-62): 18.4 µM (inactive) | GI50 (RXF 393): 13.5 µM (inactive) | GI50 (HT-29): 46 µM (inactive) | GI50 (COLO 205): 28.2 µM (inactive) | GI50 (DMS-273): 22.5 µM (inactive)
